Earlier results in PubChem BioAssay AID1259409 (Chemical Carcinogenesis Research Information System (CCRIS), 2018).

Test system: rodent chemically induced tumor inhibition, incidence and multiplicity
Experiment: CCRIS tumor inhibitor studies
Source text: The CCRIS database contains chemical records with carcinogenicity, mutagenicity, tumor promotion, and tumor inhibition test results. It was developed by the National Cancer Institute (NCI). Data are derived from studies cited in primary journals, current awareness tools, NCI reports, and other sources. Test results have been reviewed by experts in carcinogenesis and mutagenesis.
CCRIS provides historical information from the years 1985 - 2011. It is no longer updated.
This is an archive assay for CCRIS tumor inhibitor studies.

C=CCSCC=C
tumour outcome (control, treated, inhibition, significance) (Carcinogen: 4-(METHYLNITROSAMINO)-1-(3-PYRIDYL)-1-BUTANONE, 64091-91-4, Dose [Inhibitor]: 0, 200 MG/KG BW IN CORN OIL FOR 3 D PRIOR TO CARCINOGEN TREATMENT (STUDY DURATION: 16 WK), Route [Inhibitor]: ORAL, Species: MOUSE, Strain/Sex: STRAIN-A/FEMALE, Target Tissue: Type of Lesion: LUNG: TUMOR, Dose [Carcinogen]: 100 MG/KG BW ONCE, Promoter: NONE USED): 100%, 38%, 62%, not calculated
tumour outcome (control, treated, inhibition, significance) (Carcinogen: 4-(METHYLNITROSAMINO)-1-(3-PYRIDYL)-1-BUTANONE, 64091-91-4, Dose [Inhibitor]: 0, 200 MG/KG/BW IN CORN OIL 1/D FOR 3 DAY PRIOR TO CARCINOGEN DOSE (STUDY DURATION: 16 WK), Route [Inhibitor]: ORAL, Species: MOUSE, Strain/Sex: STRAIN-A/FEMALE, Target Tissue: Type of Lesion: LUNG: TUMOR, Dose [Carcinogen]: 2 MG ONCE ADMINISTERED 2 HR POST LAST AGENT DOSE, Promoter: NONE USED): 100%, 38%, 62%, p<0.05
tumour outcome (control, treated, inhibition, significance) (Carcinogen: 7,12-DIMETHYLBENZ[A]ANTHRACENE, 57-97-6, Dose [Inhibitor]: 0, 1.8 MMOL/KG BW IN CORN OIL 96, 48 AND 24 HR PRIOR TO CARCINOGEN TREATMENT (STUDY DURATION: 25 WK), Route [Inhibitor]: GAVAGE, Species: RAT, Strain/Sex: SPRAGUE-DAWLEY/FEMALE, Target Tissue: Type of Lesion: MAMMARY GLAND: ADENOCARCINOMA, Dose [Carcinogen]: 10 MG ONCE, Promoter: NONE USED): 92%, 56%, 39%, p<0.05
tumour outcome (control, treated, inhibition, significance) (Carcinogen: ARISTOLOCHIC ACID, 313-67-7, Dose [Inhibitor]: 0, 150 MG/KG BW ADMINISTERED 4 HR PRIOR TO EACH CARCINOGEN DOSE 2/WK FOR 12 WK (STUDY DURATION: 46 WK), Route [Inhibitor]: GAVAGE, Species: RAT, Strain/Sex: BD-6/MALE, Target Tissue: Type of Lesion: FORESTOMACH: CARCINOMA OR SARCOMA, Dose [Carcinogen]: 10 MG/KG BW 2/WK FOR 12 WK, Promoter: NONE USED): 9/20 (45%), 2/20 (10%), 78%, p<0.01
tumour outcome (control, treated, inhibition, significance) (Carcinogen: ARISTOLOCHIC ACID, 313-67-7, Dose [Inhibitor]: 0, 150 MG/KG BW ADMINISTERED 24 AND 4 HR PRIOR TO EACH CARCINOGEN DOSE FOR 12 WK (STUDY DURATION: 46 WK), Route [Inhibitor]: GAVAGE, Species: RAT, Strain/Sex: BD-6/MALE, Target Tissue: Type of Lesion: FORESTOMACH: CARCINOMA OR SARCOMA, Dose [Carcinogen]: 10 MG/KG BW 2/WK FOR 12 WK, Promoter: NONE USED): 11/25 (44%), 0/20 (0%), 100%, p<0.001
tumour outcome (control, treated, inhibition, significance) (Carcinogen: BENZO[A]PYRENE [50-32-8], Dose [Inhibitor]: 0, 200 MG/KG BW IN TRIOCTANOIN 1 D AND 2 HR PRIOR TO CARCINOGEN DOSE (STUDY DURATION: 21 WK), Route [Inhibitor]: GAVAGE, Species: MOUSE, Strain/Sex: CD-1/FEMALE, Target Tissue: Type of Lesion: SKIN: PAPILLOMA, Dose [Carcinogen]: 0.3 UMOL IN 0.2 ML ACETONE ONCE, Promoter: 12-O-TETRADECANOYLPHORBOL-13-ACETATE [16561-29-8]): 92%, 73%, 21%, not calculated
tumour outcome (control, treated, inhibition, significance) (Carcinogen: BENZO[A]PYRENE [50-32-8], Dose [Inhibitor]: 200 MG/KG IN 10 µL TRIOCTANOIN ONCE 1 D AND 2 HR PRIOR TO CARCINOGEN DOSE (STUDY DURATION: 21 WK), Route [Inhibitor]: GAVAGE, Species: MOUSE, Strain/Sex: CD-1/FEMALE, Target Tissue: Type of Lesion: SKIN: PAPILLOMA, Dose [Carcinogen]: 0.3 UMOL IN 0.2 ML ACETONE ONCE (STUDY DURATION: 21 WK), Promoter: 12-O-TETRADECANOYLPHORBOL-13-ACETATE [16561-29-8]): 92%, 74%, 20%, not calculated
tumour outcome (control, treated, inhibition, significance) (Carcinogen: DIETHYLNITROSAMINE, 55-18-5, Dose [Inhibitor]: 0, 150 MG/KG BW BY INTRAPERITONEAL INJECTION ON DAYS 13, 14 AND 15 OF AGE THEN 1 G/KG DIET FROM 21 TO 161 DAYS OF AGE (S, Route [Inhibitor]: INTRAPERITONEAL, ORAL, Species: MOUSE, Strain/Sex: C3H/MALE, Target Tissue: Type of Lesion: LIVER: ADENOMA, Dose [Carcinogen]: 4 MG/KG IN TRICAPRYLIN ONCE ON DAY 15 OF AGE, Promoter: NONE USED): 100%, 97%, 3%, not significant
tumour outcome (control, treated, inhibition, significance) (Carcinogen: DIETHYLNITROSAMINE, 55-18-5, N-METHYL-N-NITROSOUREA, 684-93-5, N,N'-DIMETHYLHYDRAZINE, 540-73-8, N-BUTYL-N-(4-HYDR, Carcinogen: DIETHYLNITROSAMINE, 55-18-5, N-METHYL-N-NITROSOUREA, 684-93-5, N,N'-DIMETHYLHYDRAZINE, 540-73-8, N-BUTYL-N-(4-HYDR, Dose [Inhibitor]: 0, 200 MG/KG BW IN CORN OIL 3/WK FOR 6 WK BEGINNING POST CARCINOGEN TREATMENT (STUDY DURATION: 28 WK), Route [Inhibitor]: GAVAGE, Species: RAT, Strain/Sex: F344/MALE, Target Tissue: Type of Lesion: KIDNEY: RENAL CELL ADENOMA, Dose [Carcinogen]: 100 MG/KG BW DEN ONCE, 20 MG/KG BW MNU ONCE ON D 2, 5, 8 AND 11, 40 MG/KG BW DMH ON D 14, 17, 20 AND 23, 0.05% BHBN I, Dose [Carcinogen]: 100 MG/KG BW DEN ONCE, 20 MG/KG BW MNU ONCE ON D 2, 5, 8 AND 11, 40 MG/KG BW DMH ON D 14, 17, 20 AND 23, 0.05% BHBN I, Promoter: NONE USED): 4/20 (20%), 4/19 (21%), -5%, not significant
tumour outcome (control, treated, inhibition, significance) (Carcinogen: DIETHYLNITROSAMINE, 55-18-5, N-METHYL-N-NITROSOUREA, 684-93-5, N,N'-DIMETHYLHYDRAZINE, 540-73-8, N-BUTYL-N-(4-HYDR, Carcinogen: DIETHYLNITROSAMINE, 55-18-5, N-METHYL-N-NITROSOUREA, 684-93-5, N,N'-DIMETHYLHYDRAZINE, 540-73-8, N-BUTYL-N-(4-HYDR, Dose [Inhibitor]: 0, 200 MG/KG BW IN CORN OIL 3/WK FOR 6 WK BEGINNING POST CARCINOGEN TREATMENT (STUDY DURATION: 28 WK), Route [Inhibitor]: GAVAGE, Species: RAT, Strain/Sex: F344/MALE, Target Tissue: Type of Lesion: LARGE INTESTINE: ADENOMA, Dose [Carcinogen]: 100 MG/KG BW DEN ONCE, 20 MG/KG BW MNU ONCE ON D 2, 5, 8 AND 11, 40 MG/KG BW DMH ON D 14, 17, 20 AND 23, 0.05% BHBN I, Dose [Carcinogen]: 100 MG/KG BW DEN ONCE, 20 MG/KG BW MNU ONCE ON D 2, 5, 8 AND 11, 40 MG/KG BW DMH ON D 14, 17, 20 AND 23, 0.05% BHBN I, Promoter: NONE USED): 6/20 (30%), 1/19 (5%), 83%, not calculated
tumour outcome (control, treated, inhibition, significance) (Carcinogen: DIETHYLNITROSAMINE, 55-18-5, N-METHYL-N-NITROSOUREA, 684-93-5, N,N'-DIMETHYLHYDRAZINE, 540-73-8, N-BUTYL-N-(4-HYDR, Carcinogen: DIETHYLNITROSAMINE, 55-18-5, N-METHYL-N-NITROSOUREA, 684-93-5, N,N'-DIMETHYLHYDRAZINE, 540-73-8, N-BUTYL-N-(4-HYDR, Dose [Inhibitor]: 0, 200 MG/KG BW IN CORN OIL 3/WK FOR 6 WK BEGINNING POST CARCINOGEN TREATMENT (STUDY DURATION: 28 WK), Route [Inhibitor]: GAVAGE, Species: RAT, Strain/Sex: F344/MALE, Target Tissue: Type of Lesion: LARGE INTESTINE: CARCINOMA, Dose [Carcinogen]: 100 MG/KG BW DEN ONCE, 20 MG/KG BW MNU ONCE ON D 2, 5, 8 AND 11, 40 MG/KG BW DMH ON D 14, 17, 20 AND 23, 0.05% BHBN I, Dose [Carcinogen]: 100 MG/KG BW DEN ONCE, 20 MG/KG BW MNU ONCE ON D 2, 5, 8 AND 11, 40 MG/KG BW DMH ON D 14, 17, 20 AND 23, 0.05% BHBN I, Promoter: NONE USED): 8/20 (40%), 7/19 (37%), 8%, not significant
tumour outcome (control, treated, inhibition, significance) (Carcinogen: DIETHYLNITROSAMINE, 55-18-5, N-METHYL-N-NITROSOUREA, 684-93-5, N,N-DIBUTYLNITROSAMINE, 924-16-3, Carcinogen: DIETHYLNITROSAMINE, 55-18-5, N-METHYL-N-NITROSOUREA, 684-93-5, N,N-DIBUTYLNITROSAMINE, 924-16-3, Dose [Inhibitor]: 0, 0.5% IN DIET BEGINNING POST CARCINOGEN TREATMENT AND CONTINUING TO WK 40 (STUDY DURATION: 40 WK), Route [Inhibitor]: ORAL, Species: RAT, Strain/Sex: F344/MALE, Target Tissue: Type of Lesion: LUNG: ADENOMA, Dose [Carcinogen]: 100 MG/KG DIETHYLNITROSAMINE ONCE FOLLOWED BY 20 MG/KG N-METHYL-N-NITROSOUREA ON D 2, 5, 8 AND 11 THEN 0.05% N-N-DIBUTYL, Promoter: NONE USED): 9/16 (56%), 2/18 (11%), 80%, p<0.01
